# Source: article PMC5564600 (Oncotarget, 2017)
# Assays:
# Assay in all cases: biochemical
# Type in all cases: binding
# panel of 442 kinases [1] = molecular target: T1, panel of 442 kinases (Homo sapiens, UniProt Q9Y6M4); details: CSNK1G3; for remaining activity at 1 µM: read-out: % of control at 1 µM
# T1 construct: purchased Ambit Biosciences (scanMAXX KINOMEscan)
# panel of 442 kinases [2] = molecular target: T2, panel of 442 kinases (Homo sapiens, UniProt P06241); details: kinase FYN; for remaining activity at 1 µM: read-out: % of control at 1 µM
# T2 construct: purchased Ambit Biosciences (scanMAXX KINOMEscan)
# panel of 442 kinases [3] = molecular target: T3, panel of 442 kinases (Homo sapiens, UniProt Q15831); details: kinase LKB1; for remaining activity at 1 µM: read-out: % of control at 1 µM
# T3 construct: purchased Ambit Biosciences (scanMAXX KINOMEscan)
# T3 sequence (Q15831 1-433): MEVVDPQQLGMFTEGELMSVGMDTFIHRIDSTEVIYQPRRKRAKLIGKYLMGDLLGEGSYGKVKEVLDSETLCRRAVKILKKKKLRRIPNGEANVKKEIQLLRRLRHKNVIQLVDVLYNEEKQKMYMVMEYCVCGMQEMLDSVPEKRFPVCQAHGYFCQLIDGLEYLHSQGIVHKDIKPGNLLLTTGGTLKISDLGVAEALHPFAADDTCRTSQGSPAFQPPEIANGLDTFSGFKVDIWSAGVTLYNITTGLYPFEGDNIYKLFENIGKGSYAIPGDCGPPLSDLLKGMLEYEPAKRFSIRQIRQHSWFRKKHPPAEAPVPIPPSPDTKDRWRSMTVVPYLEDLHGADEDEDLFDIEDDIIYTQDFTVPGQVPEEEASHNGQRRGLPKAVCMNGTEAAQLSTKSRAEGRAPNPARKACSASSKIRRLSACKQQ
# panel of 442 kinases [4] = molecular target: T4, panel of 442 kinases (Homo sapiens, UniProt Q13153); details: kinase PAK1; for remaining activity at 1 µM: read-out: % of control at 1 µM
# T4 construct: purchased Ambit Biosciences (scanMAXX KINOMEscan)
# panel of 442 kinases [5] = molecular target: T5, panel of 442 kinases (Homo sapiens, UniProt P29320); details: EPHA3; for remaining activity at 1 µM: read-out: % of control at 1 µM
# T5 construct: purchased Ambit Biosciences (scanMAXX KINOMEscan)
# T5 sequence (P29320 21-983): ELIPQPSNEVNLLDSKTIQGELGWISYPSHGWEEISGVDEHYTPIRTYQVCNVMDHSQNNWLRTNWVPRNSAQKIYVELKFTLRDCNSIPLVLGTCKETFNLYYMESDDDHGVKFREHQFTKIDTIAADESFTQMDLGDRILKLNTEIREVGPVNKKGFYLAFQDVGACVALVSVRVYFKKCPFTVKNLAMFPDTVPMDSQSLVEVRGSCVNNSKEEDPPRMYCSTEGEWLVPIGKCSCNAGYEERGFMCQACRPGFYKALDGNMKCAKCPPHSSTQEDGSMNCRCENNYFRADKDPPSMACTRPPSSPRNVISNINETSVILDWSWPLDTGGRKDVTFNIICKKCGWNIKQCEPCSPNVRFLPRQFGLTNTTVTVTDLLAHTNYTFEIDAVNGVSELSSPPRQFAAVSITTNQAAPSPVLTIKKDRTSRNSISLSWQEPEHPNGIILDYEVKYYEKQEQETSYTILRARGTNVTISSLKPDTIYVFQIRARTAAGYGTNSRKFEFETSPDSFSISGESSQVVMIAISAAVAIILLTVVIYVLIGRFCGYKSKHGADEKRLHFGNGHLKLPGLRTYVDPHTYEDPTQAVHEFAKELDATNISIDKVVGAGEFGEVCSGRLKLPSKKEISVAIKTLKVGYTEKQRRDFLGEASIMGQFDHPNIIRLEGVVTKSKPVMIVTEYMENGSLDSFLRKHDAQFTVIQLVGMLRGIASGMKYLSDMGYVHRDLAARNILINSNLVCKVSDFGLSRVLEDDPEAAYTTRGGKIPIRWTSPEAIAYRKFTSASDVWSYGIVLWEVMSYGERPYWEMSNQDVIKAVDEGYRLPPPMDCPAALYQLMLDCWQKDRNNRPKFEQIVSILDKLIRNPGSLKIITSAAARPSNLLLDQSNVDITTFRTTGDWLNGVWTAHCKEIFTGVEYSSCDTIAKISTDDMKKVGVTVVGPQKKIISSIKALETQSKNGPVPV
# panel of 442 kinases [6] = molecular target: T6, panel of 442 kinases (Homo sapiens, UniProt Q13523); details: kinase PRP4; for remaining activity at 1 µM: read-out: PRP4 (% of control at 1 µM)
# T6 construct: purchased Ambit Biosciences (scanMAXX KINOMEscan)
# panel of 442 kinases [7] = molecular target: T7, panel of 442 kinases (Homo sapiens, UniProt P53350); details: kinase PLK1; for remaining activity at 1 µM: read-out: PLK1 (% of control at 1 µM)
# T7 construct: purchased Ambit Biosciences (scanMAXX KINOMEscan)
# panel of 442 kinases [8] = molecular target: T8, panel of 442 kinases (Homo sapiens, UniProt O14920); details: kinase IKK-beta; for remaining activity at 1 µM: read-out: % of control at 1 µM
# T8 construct: purchased Ambit Biosciences (scanMAXX KINOMEscan)
# T8 sequence (O14920 1-756): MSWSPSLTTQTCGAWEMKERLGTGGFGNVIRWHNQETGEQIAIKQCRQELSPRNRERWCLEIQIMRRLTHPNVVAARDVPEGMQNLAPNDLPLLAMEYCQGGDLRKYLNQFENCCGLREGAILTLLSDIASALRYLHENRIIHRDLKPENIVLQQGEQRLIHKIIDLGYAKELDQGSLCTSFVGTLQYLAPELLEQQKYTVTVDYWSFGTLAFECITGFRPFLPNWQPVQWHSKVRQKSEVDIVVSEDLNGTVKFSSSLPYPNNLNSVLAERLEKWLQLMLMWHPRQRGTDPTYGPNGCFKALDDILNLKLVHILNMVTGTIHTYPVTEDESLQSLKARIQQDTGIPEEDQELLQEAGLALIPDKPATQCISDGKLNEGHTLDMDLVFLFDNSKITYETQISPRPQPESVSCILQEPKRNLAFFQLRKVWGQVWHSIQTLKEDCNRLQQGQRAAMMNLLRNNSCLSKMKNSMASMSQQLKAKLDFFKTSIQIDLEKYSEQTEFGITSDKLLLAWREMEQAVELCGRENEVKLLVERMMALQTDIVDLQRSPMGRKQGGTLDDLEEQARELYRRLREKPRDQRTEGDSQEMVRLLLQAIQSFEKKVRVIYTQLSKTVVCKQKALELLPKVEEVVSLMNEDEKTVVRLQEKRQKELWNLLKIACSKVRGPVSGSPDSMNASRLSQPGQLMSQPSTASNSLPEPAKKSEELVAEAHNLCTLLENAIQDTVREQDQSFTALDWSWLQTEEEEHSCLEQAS
# panel of 442 kinases [9] = molecular target: T9, panel of 442 kinases (Homo sapiens, UniProt P42684); details: ABL2; for remaining activity at 1 µM: read-out: % of control at 1 µM
# T9 construct: purchased Ambit Biosciences (scanMAXX KINOMEscan)
# panel of 442 kinases [10] = molecular target: T10, panel of 442 kinases (Homo sapiens, UniProt Q14012); details: CAMK1; for remaining activity at 1 µM: read-out: % of control at 1 µM
# T10 construct: purchased Ambit Biosciences (scanMAXX KINOMEscan)
# [11] = 10 µM, read-out: % of control at 10 µM
# T6 sequence (Q13523 whole entry): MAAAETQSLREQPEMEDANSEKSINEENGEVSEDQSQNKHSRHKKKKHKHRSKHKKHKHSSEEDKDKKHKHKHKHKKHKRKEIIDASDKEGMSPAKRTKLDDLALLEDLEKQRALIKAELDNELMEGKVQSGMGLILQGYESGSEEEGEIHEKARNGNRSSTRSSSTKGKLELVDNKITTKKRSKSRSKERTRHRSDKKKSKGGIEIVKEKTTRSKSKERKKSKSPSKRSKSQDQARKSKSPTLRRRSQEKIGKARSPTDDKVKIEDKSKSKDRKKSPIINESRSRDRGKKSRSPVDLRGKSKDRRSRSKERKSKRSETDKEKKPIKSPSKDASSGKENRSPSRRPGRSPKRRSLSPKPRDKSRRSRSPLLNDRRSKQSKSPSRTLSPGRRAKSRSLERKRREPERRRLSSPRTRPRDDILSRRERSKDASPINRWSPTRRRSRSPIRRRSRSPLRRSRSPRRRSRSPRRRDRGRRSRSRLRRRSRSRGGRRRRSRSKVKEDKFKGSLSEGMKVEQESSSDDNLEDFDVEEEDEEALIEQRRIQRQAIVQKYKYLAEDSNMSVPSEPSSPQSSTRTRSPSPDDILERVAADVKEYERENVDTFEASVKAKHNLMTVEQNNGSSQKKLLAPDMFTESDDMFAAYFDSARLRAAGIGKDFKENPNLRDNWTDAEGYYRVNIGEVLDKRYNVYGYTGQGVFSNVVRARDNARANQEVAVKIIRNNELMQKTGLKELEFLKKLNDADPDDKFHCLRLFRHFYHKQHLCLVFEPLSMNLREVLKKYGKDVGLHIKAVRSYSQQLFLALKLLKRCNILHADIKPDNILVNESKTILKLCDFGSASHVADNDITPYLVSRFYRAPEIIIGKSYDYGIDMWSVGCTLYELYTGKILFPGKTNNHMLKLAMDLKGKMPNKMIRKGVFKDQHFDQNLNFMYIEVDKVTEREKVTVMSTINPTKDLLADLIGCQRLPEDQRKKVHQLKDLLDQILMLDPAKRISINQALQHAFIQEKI
# T1 sequence (Q9Y6M4 whole entry): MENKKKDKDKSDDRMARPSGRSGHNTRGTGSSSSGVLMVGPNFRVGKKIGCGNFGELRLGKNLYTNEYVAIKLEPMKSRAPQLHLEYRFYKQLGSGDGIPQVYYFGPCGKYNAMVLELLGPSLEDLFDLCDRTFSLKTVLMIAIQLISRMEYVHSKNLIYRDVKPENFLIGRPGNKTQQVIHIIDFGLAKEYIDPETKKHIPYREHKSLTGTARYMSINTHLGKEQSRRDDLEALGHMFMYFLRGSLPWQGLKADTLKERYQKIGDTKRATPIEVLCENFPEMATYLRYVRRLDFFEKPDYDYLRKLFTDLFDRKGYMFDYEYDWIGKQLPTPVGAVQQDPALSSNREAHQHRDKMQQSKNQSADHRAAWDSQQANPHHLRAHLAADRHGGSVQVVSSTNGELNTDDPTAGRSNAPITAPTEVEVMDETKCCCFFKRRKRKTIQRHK
# T7 sequence (P53350 whole entry): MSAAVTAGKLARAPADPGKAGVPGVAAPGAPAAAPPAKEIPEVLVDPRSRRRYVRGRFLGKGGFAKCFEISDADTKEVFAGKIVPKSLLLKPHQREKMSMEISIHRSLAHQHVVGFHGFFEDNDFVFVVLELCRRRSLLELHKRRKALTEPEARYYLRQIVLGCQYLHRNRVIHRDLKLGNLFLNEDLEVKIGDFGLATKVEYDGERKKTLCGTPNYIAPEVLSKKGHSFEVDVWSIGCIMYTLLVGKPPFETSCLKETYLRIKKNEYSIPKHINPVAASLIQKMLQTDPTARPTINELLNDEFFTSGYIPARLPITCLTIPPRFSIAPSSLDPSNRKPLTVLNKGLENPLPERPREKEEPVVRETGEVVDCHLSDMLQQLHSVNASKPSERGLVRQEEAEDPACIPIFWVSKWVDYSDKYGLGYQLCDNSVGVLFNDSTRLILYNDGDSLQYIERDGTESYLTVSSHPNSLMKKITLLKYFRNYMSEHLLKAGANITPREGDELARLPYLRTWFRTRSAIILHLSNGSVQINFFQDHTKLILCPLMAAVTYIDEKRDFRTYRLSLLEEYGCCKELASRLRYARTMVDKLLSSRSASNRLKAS
# T4 sequence (Q13153 whole entry): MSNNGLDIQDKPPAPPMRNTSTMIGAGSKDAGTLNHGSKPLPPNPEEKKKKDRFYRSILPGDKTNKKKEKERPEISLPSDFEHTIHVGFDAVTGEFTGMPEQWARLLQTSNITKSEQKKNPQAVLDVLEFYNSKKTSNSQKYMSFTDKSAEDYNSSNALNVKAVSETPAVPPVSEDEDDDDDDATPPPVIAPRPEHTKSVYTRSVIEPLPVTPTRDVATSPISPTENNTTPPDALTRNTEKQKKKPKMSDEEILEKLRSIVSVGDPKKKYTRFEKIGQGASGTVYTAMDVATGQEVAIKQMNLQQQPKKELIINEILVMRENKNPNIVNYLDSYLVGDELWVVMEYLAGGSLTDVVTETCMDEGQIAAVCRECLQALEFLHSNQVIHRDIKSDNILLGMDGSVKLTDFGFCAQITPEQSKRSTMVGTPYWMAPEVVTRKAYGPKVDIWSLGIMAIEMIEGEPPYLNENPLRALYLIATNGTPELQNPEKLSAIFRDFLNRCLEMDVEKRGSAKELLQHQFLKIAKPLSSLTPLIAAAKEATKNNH
# T10 sequence (Q14012 whole entry): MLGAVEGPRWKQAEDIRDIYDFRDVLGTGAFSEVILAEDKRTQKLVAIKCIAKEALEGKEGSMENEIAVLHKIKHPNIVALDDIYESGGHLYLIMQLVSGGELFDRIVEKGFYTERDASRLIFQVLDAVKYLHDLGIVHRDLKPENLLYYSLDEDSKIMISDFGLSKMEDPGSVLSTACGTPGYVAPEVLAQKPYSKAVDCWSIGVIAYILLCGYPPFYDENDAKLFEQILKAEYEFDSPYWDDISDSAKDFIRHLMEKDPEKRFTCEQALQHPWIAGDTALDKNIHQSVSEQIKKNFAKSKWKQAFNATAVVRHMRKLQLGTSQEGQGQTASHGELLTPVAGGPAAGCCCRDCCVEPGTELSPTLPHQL
# T2 sequence (P06241 whole entry): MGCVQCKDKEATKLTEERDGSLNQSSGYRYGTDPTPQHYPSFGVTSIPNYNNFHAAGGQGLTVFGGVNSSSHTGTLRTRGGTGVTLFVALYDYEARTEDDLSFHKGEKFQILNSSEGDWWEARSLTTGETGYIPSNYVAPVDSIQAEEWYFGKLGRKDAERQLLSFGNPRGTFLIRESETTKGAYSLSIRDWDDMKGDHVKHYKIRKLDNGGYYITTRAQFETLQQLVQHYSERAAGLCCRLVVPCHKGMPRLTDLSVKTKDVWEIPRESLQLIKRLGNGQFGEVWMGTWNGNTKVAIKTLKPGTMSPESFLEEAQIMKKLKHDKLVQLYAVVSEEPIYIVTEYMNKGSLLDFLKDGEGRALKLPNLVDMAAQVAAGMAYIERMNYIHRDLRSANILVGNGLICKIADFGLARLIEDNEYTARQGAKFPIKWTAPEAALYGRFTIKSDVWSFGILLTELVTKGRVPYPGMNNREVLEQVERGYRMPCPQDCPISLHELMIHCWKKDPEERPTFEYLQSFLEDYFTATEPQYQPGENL
# T9 sequence (P42684 whole entry): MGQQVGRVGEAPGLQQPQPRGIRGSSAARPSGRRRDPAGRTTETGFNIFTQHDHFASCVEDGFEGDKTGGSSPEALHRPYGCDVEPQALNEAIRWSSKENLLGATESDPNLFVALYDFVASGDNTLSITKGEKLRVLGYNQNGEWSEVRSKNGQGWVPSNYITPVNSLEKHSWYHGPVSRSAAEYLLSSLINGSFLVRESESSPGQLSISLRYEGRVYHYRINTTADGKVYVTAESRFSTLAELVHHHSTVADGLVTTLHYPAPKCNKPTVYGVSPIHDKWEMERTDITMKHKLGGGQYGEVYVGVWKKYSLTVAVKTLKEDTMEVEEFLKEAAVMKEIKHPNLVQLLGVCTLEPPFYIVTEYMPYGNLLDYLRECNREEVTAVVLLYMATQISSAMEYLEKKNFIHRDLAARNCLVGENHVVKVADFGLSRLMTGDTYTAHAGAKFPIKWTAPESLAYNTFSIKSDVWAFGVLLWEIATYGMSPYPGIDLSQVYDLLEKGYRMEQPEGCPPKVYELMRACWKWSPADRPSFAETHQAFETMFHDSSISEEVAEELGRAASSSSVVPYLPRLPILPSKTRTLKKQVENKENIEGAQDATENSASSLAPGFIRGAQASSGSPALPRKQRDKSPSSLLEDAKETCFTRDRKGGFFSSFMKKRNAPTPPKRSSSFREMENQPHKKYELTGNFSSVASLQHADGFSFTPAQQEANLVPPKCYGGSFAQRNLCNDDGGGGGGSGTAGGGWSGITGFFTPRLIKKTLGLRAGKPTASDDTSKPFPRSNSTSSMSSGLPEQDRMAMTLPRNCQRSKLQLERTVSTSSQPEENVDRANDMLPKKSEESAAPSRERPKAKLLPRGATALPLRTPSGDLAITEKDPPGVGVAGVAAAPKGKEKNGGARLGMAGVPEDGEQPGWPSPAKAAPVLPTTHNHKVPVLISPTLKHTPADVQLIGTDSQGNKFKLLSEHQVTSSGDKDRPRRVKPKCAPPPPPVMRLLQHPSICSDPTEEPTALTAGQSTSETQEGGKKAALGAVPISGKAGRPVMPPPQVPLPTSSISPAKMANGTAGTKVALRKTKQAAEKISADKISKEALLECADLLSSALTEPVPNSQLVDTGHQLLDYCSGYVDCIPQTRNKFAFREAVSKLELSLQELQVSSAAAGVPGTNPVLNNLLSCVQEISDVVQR
SMILES,remaining activity at 1 µM (panel of 442 kinases [1]),remaining activity at 10 µM (panel of 442 kinases [1]; [11]),remaining activity at 1 µM (panel of 442 kinases [2]),remaining activity at 10 µM (panel of 442 kinases [2]; [11]),remaining activity at 1 µM (panel of 442 kinases [3]),remaining activity at 10 µM (panel of 442 kinases [3]; [11]),remaining activity at 1 µM (panel of 442 kinases [4]),remaining activity at 10 µM (panel of 442 kinases [4]; [11]),remaining activity at 1 µM (panel of 442 kinases [5]),remaining activity at 10 µM (panel of 442 kinases [5]; [11]),remaining activity at 1 µM (panel of 442 kinases [6]),"remaining activity at 10 µM (panel of 442 kinases [6]; 10 µM, read-out: PRP4 (% of control at 10 µM))",remaining activity at 1 µM (panel of 442 kinases [7]),"remaining activity at 10 µM (panel of 442 kinases [7]; 10 µM, read-out: PLK1 (% of control at 10 µM))",remaining activity at 1 µM (panel of 442 kinases [8]),remaining activity at 10 µM (panel of 442 kinases [8]; [11]),remaining activity at 1 µM (panel of 442 kinases [9]),remaining activity at 10 µM (panel of 442 kinases [9]; [11]),remaining activity at 1 µM (panel of 442 kinases [10]),remaining activity at 10 µM (panel of 442 kinases [10]; [11])
Nc1cc(C(F)(F)F)c(-c2cc(N3CCOCC3)nc(N3CCOCC3)n2)cn1 [Buparlisib],100%,100%,100%,100%,100%,99%,100%,96%,96%,100%,100%,93%,65%,84%,92%,100%,100%,100%,100%,100%
"Cn1c(=O)n(-c2ccc(C(C)(C)C#N)cc2)c2c3cc(-c4cnc5ccccc5c4)ccc3ncc21 [Dactolisib, 2-methyl-2-[4-(3-methyl-2-oxo-8-quinolin-3-yl-2,3-dihydroimidazo[4,5-c]quinolin-1-yl)-phenyl] propionitrile]",72%,,81%,,93%,,100%,,63%,,100%,,93%,,73%,,100%,,78%,
COc1ncc(-c2ccc3nccc(-c4ccnnc4)c3c2)cc1NS(=O)(=O)c1ccc(F)cc1F [Omipalisib],100%,,100%,,100%,,55%,,100%,,95%,,97%,,100%,,100%,,100%,
"FC(F)c1nc2ccccc2n1-c1nc(N2CCOCC2)nc(N2CCOCC2)n1 [ZSTK474, 2-(difluoromethyl)-1-[4,6-di(4-morpholinyl)-1,3,5-triazin-2-yl]-1H-benzimidazole]",100%,,80%,,100%,,100%,,93%,,100%,,62%,,88%,,100%,,100%,
